Test results: patent US20030134348A1, “Recombinant bioluminescent bacteria Escherichia coli DH5@/pSodaLux (EBHJ1) [KCTC 10098BP] for monitoring oxidative stress” (priority 2001, published 2003)

Key:
[1] = tested on: Escherichia coli DH5@/pSodaLux (EBHJ1) [KCTC 10098BP]; assay type: cell-based; conditions: for bioluminescence in dependence on concentration of the toxic material: sodA promoter::LuxCDABE reporter, 96-well luminometer, 30° C., 0-2048 ppm, FIGS. 3-6
Procedure: The bioluminescent bacteria Escherichia coli DH5@/pSodaLux (EBHJ1) were cultured in a shaking incubator of 30° C. at 250 rpm, in the LB medium [DIFCO, USA] containing 25 μg/ml of kanamycin [Sigma Co., USA] until the OD reaches 0.8 at 600 nm. Then, 2 ml of the culture was cultured for about 4 hr in 100 ml of LB medium. […] The bioluminescence was measured at 30° C. with a 96-well luminometer [DYNEX Technologies, USA].
The bioluminescence is measured in BL (bioluminescence intensity). Increase in bioluminescence can be determined by comparing the bioluminescence when toxic material was injected (sample bioluminescence) and that when no toxic material was injected (control bioluminescence). The RBL (relative bioluminescence) is calculated by the following Equation 1. [formula]

[2] = tested on: Escherichia coli DH5@/pSodaLux (EBHJ1) [KCTC 10098BP]; test: Growth inhibition of the recombinant bioluminescent bacteria; assay type: cell-based; conditions: around 50 ppm

| Compound | bioluminescence in dependence on concentration of the toxic material [1] | bioluminescence ([1]; around 50 ppm) | growth inhibition [2] |
| --- | --- | --- | --- |
| [Cl][Cd][Cl] [cadmium chloride] | the bioluminescence increased with the concentration |  |  |
| OO [hydrogen peroxide] | proportionally increasing bioluminescence |  |  |
| C[n+]1ccc(-c2cc[n+](C)cc2)cc1 [paraquat dichloride] | proportionally increasing bioluminescence | substantial bioluminescence | little growth inhibition |
